Patent US8946426B2, “Substituted bicyclic heterocyclic compounds as gamma secretase modulators” (Janssen Pharmaceuticals, Inc., priority 2009, dated 2015)

Legend:
[1] = tested on: Aβ42; experiment: Method 1: Aβ42 sandwich ELISA in supernatant of SKNBE2 cells carrying APP 695-wild type (Tables 7a, 7b); format: cell-based
In short: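 IC50 values were derived with a 4-parameter equation, fitting either percent inhibition or percent of compound-free Aβ42 as the control. The Aβ42 came from supernatants of APP695 wild-type SKNBE2 cells treated for 18 hours. It was measured by ELISA with anti-Aβ42 capture, biotinylated 3D6 and TMB absorbance at 450 nm.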

[2] = tested on: Aβtotal; experiment: Method 1: Aβtotal sandwich ELISA in supernatant of SKNBE2 cells carrying APP 695-wild type (Tables 7a, 7b); format: cell-based
In short: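 SKNBE2 cells expressing wild-type APP695 were exposed to compound for 18 Hours in Ultraculture with 1% glutamine. Aβtotal in the supernatant was read by 6E10-capture/biotinylated 4G8 sandwich ELISA with a fluorogenic peroxidase read-out, and WST-1 checked toxicity. IC50 came from a 4-parameter fit of percent inhibition or percent of control versus concentration.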

[3] = tested on: Aβtotal; experiment: In vivo efficacy: Aβtotal lowering in brain after single oral dose (Table 8); details: mouse brain soluble fraction, ELISA, compared to untreated animals
From the text: (§1) To determine whether acute administration of an Aβ42 lowering agent would reduce Aβ42 levels in vivo, non-transgenic rodents, e.g. mice or rats were used. Alternatively, two to three month old Tg2576 mice expressing APP695 containing the “Swedish” variant can be used or a transgenic mouse model developed by Dr. Fred Van Leuven (K.U.Leuven, Belgium) and co-workers, with neuron-specific expression of a clinical mutant of the human amyloid precursor protein [V7171] (Moechars et al., 1999 J. Biol. Chem. 274, 6483). Young transgenic mice have high levels of Aβ in the brain but no detectable Aβ deposition. At approximately 6-8 months of age, the transgenic mice start to display spontaneous, progressive accumulation of β-amyloid (Aβ) in the brain, eventually resulting in amyloid plaques within the subiculum, hippocampus and cortex. Animals treated with the Aβ42 lowering agent were examined and compared to those untreated or treated with vehicle and brain levels of soluble Aβ42 and total Aβ would be quantitated by standard techniques, for example, using ELISA. Treatment periods varied from hours to days and were adjusted based on the results of the Aβ42 lowering once a time course of onset of effect could be established.
(§2) A typical protocol for measuring Aβ42 lowering in vivo is shown but it is only one of many variations that could be used to optimize the levels of detectable Aβ. For example, Aβ42 lowering compounds were formulated in 20% of Captisol® (a sulfobutyl ether of β-cyclodextrin) in water or 20% hydroxypropyl β cyclodextrin. The Aβ42 lowering agents were administered as a single oral dose or by any acceptable route of administration to overnight fasted animals. After four hours, the animals were sacrificed and Aβ42 levels were analysed.
(§3) Blood was collected by decapitation and exsanguinations in EDTA-treated collection tubes. Blood was centrifuged at 1900 g for 10 min at 4° C. and the plasma recovered and flash frozen for later analysis. The brain was removed from the cranium and hindbrain. The cerebellum was removed and the left and right hemisphere were separated. The left hemisphere was stored at −18° C. for quantitative analysis of test compound levels. The right hemisphere was rinsed with phosphate-buffered saline (PBS) buffer and immediately frozen on dry ice and stored at −80° C. until homogenization for biochemical assays.
(§4) Mouse brains were resuspended in 10 volumes of 0.4% DEA (diethylamine)/50 mM NaCl pH 10 (for non-transgenic animals) or 0.1% 3-[(3-cholamidopropyl)-dimethyl-ammonio]-1-propanesulfonate (CHAPS) in tris buffered saline (TBS) (for transgenic animals) containing protease inhibitors (Roche-11873580001 or 04693159000 per gram of tissue, e.g. for 0.158 g brain, add 1.58 ml of 0.4% DEA. All samples were sonicated for 30 sec on ice at 20% power output (pulse mode). Homogenates were centrifuged at 221.300×g for 50 min. The resulting high speed supernatants were then transferred to fresh tubes and were optionally further purified before the next step. A portion of the supernatant was neutralized with 10% 0.5 M Tris-HCl and this was used to quantify Aβtotal.
(§5) The obtained supernatants were purified with Water Oasis HLB reverse phase columns (Waters Corp., Milford, Mass.) to remove non-specific immunoreactive material from the brain lysates prior subsequent Aβ detection. Using a vacuum manifold, all solutions were passed through the columns at a rate of approximately 1 ml per minute, so the vacuum pressure was adjusted accordingly throughout the procedure. Columns were preconditioned with 1 ml of 100% MeOH, before equilibration with 1 ml of H2O. Non-neutralized brain lysates were loaded onto the columns. The loaded samples were then washed twice with the first wash performed with 1 ml of 5% MeOH, and the second wash with 1 ml of 30% MeOH. Finally, the Aβ was eluted from the columns and into 100×30 mm glass tubes, with a solution of 90% MeOH with 2% NH4OH. […]

[4] = tested on: Aβ42; experiment: In vivo efficacy: Aβ42 lowering in brain after single oral dose (Table 8); details: mouse brain soluble fraction, ELISA, compared to untreated animals
From the text: as §1, §2, §3, §4, §5

[5] = tested on: Aβ42; experiment: Method 2: Aβ42 Alphalisa in supernatant of SKNBE2 cells carrying APP 695-wild type (Table 7c); format: cell-based; details: Method 2, Alphalisa, overnight incubation
Experimental: (§6) Screening was carried out using SKNBE2 cells carrying the APP 695-wild type, grown in Dulbecco's Modified Eagle's Medium/Nutrient mixture F-12 (DMEM/NUT-mix F-12) (HAM) provided by Invitrogen (cat no. 10371-029) containing 5% Serum/Fe supplemented with 1% non-essential amino acids, 1-glutamine 2 mM, Hepes 15 mM, penicillin 50 U/ml (units/ml) en streptomycin 50 μg/ml. Cells were grown to near confluency.
(§7) The screening was performed using a modification of the assay as described in Citron et al (1997) Nature Medicine 3: 67. Briefly, cells were plated in a 384-well plate at 10^4 cells/well in Ultraculture (Lonza, BE12-725F) supplemented with 1% glutamine (Invitrogen, 25030-024), 1% non-essential amino acid (NEAA), penicillin 50 U/ml en streptomycin 50 μg/ml in the presence of test compound at different test concentrations. The cell/compound mixture was incubated overnight at 37° C., 5% CO2. The next day the media were assayed by two sandwich immuno-assays, for Aβ42 and Aβtotal.
(§8) Aβtotal and Aβ42 concentrations were quantified in the cell supernatant using the Aphalisa technology (Perkin Elmer). Alphalisa is a sandwich assay using biotinylated antibody attached to streptavidin coated donorbeads and antibody conjugated to acceptor beads. In the presence of antigen, the beads come into close proximity. The excitation of the donor beads provokes the release of singlet oxygen molecules that trigger a cascade of energy transfer in the acceptor beads, resulting in light emission. To quantify the amount of Aβ42 in the cell supernatant, monoclonal antibody specific to the C-terminus of Aβ42 (JRF/cAβ42/26) was coupled to the receptor beads and biotinylated antibody specific to the N-terminus of Aβ (JRF/AβN/25) was used to react with the donor beads. To quantify the amount of Aβtotal in the cell supernatant, monoclonal antibody specific to the N-terminus of Aβ (JRF/AβN/25) was coupled to the receptor beads and biotinylated antibody specific to the mid region of Aβ (biotinylated 4G8) was used to react with the donor beads.
(§9) To obtain the values reported in Table 7c, the data were calculated as percentage of the maximum amount of amyloid Beta 42 measured in the absence of the test compound. The sigmoidal dose response curves were analyzed using non-linear regression analysis with percentage of the control plotted against the log concentration of the compound. A 4-parameter equation was used to determine the IC50.

[6] = tested on: Aβtotal; experiment: Method 2: Aβtotal Alphalisa in supernatant of SKNBE2 cells carrying APP 695-wild type (Table 7c); format: cell-based; details: Method 2, Alphalisa, overnight incubation
Experimental: as §6, §7, §8, §9

[7] = Homo sapiens, SKNBE2, Table 7b, averaged IC50, non-linear regression of percentage of control vs log concentration, 4-parameter equation
[8] = Homo sapiens, Table 7a, SKNBE2 cells, compounds 18 h, XLfit 4-parameter fit of percent inhibition, top/bottom fixed to 100/0, hill slope 1
[9] = Table 7a, SKNBE2 cells, compounds 18 h, XLfit 4-parameter fit of percent inhibition, top/bottom fixed to 100/0, hill slope 1
[10] = Table 7b, averaged IC50, non-linear regression of percentage of control vs log concentration, 4-parameter equation

Structure (SMILES)	IC50 [1, 10] [nM]	IC50 [2, 10] [nM]	Aβtotal (% Ctrl)_Mean [3] [% Ctrl]	Aβ42 (% Ctrl)_Mean [4] [% Ctrl]	also measured
COc1cc(Nc2cccn3cc(-c4ccc(F)cc4)nc23)ccc1-c1ocnc1C [Compound 1]					IC50 [1, 7]: 200 nM; IC50 [1, 8]: 203 nM; melting point: 163.2 °C; IC50 [2, 7]: > 5000 nM; IC50 [2, 8]: > 5000 nM
COc1cc(Nc2cccc3c2nc(-c2ccc(F)cc2)n3C(C)C)ccc1-c1cnc(C)o1.Cl.Cl [Compound 25]	23	> 3000	96	76	IC50 [1, 9]: 24 nM; IC50 [2, 9]: > 3000 nM
COc1cc(Nc2cc(F)cn3cc(CC(C)C)nc23)ccc1-c1ocnc1C.Cl [Compound 157]	81	> 10000	100	77	
COc1cccc(-c2nc3c(Nc4ccc(-c5cnc(C)o5)c(OC)c4)cccc3n2C)c1 [Compound 63]	11	> 3000	90	56	
COc1cccc(-c2nc3c(Nc4ccc(-c5ocnc5C)c(OC)c4)cccn3c2C)c1 [Compound 2]			104	95	IC50 [1, 7]: 20 nM; IC50 [1, 8]: 22 nM; IC50 [2, 7]: > 3000 nM; IC50 [2, 8]: > 3000 nM
Cc1ncc(-c2ccc(Nc3cccn4c(C(C)C)c(-c5ccc(F)cc5)nc34)cc2)o1 [Compound 175]					IC50 [1, 7]: 33 nM; melting point: 157.2 °C; IC50 [2, 7]: > 3000 nM
Cc1cn2cc(Br)nc(Nc3ccc(-c4cnc(C)o4)cc3)c2n1 [Compound 179]					IC50 [1, 7]: > 3000 nM; melting point: 200.1 °C; IC50 [2, 7]: > 3000 nM
Cc1ncc(-c2ccc(Nc3cc(C(F)(F)F)cc4c3nc(-c3ccc(F)cc3)n4C)cn2)o1 [Compound 101]			92	77	IC50 [5]: 46 nM; IC50 [6]: > 10000 nM
COc1cc(Nc2cc(C(F)(F)F)cn3cc(C(C)=O)nc23)ccc1-c1ocnc1C [Compound 165]					IC50 [1, 7]: 288 nM; melting point: 183.6 °C; IC50 [2, 7]: > 30000 nM
COc1cccc(-c2nc3c(Nc4ccc(-c5cnc(C)o5)c(OC)c4)nc(C)cc3n2C)c1 [Compound 97]	21	> 3000	102	71	
COc1cc(Nc2cc(F)cc3c2nc(N2CCCC2)n3C)ccc1-c1cnc(C)o1 [Compound 104]			97	110	IC50 [5]: 501 nM; IC50 [6]: > 10000 nM
COc1cc(Nc2nccc3c2nc(-c2ccc(F)cc2F)n3C)ccc1-c1cnc(C)o1 [Compound 31]	78	> 3000	102	91	IC50 [1, 9]: 76 nM; IC50 [2, 9]: > 3000 nM
COc1cc(Nc2cccn3cc(-c4ccc(F)cc4)nc23)ccc1-c1cnc(C)o1 [Compound 3]					IC50 [1, 7]: 178 nM; IC50 [1, 8]: 196 nM; melting point: 219.1 °C; IC50 [2, 7]: > 10000 nM; IC50 [2, 8]: > 10000 nM

More lines, main results first:

IC50 [1, 10] [nM]	IC50 [2, 10] [nM]	Structure (SMILES)	Aβtotal (% Ctrl)_Mean [3] [% Ctrl]	Aβ42 (% Ctrl)_Mean [4] [% Ctrl]	also measured
251	> 10000	COc1cc(Nc2cc(C(F)(F)F)cn3cc(C)nc23)ccc1-c1ocnc1C.Cl.Cl [Compound 141]	89	87	
> 3000	> 3000	Cc1ncc(-c2ccc(Nc3cc(C(F)(F)F)cn4cc(C(=O)N(C)C)nc34)cc2F)o1 [Compound 181]	105	104	
240	> 10000	Cc1cc2c(nc(-c3ccc(F)cc3)n2C)c(Nc2ccc(-c3cnc(C)o3)cc2)n1 [Compound 58]	105	89	
23	> 3000	COc1cc(Nc2ccc(-c3cnc(C)o3)c(OC)c2)c2nc(-c3ccc(F)cc3)n(C)c2c1 [Compound 95]	88	47	
490	> 10000	COc1cc(Nc2nccc3c2nc(-c2ccc(F)cc2F)n3C)ccc1-c1ocnc1C [Compound 54]	104	101	
12	> 3000	COc1ccc(C)c(-c2cn3cccc(Nc4ccc(-c5cnc(C)o5)cc4)c3n2)c1 [Compound 40]	102	77	IC50 [1, 9]: 11 nM; IC50 [2, 9]: > 3000 nM
126	> 3000	COc1ccc(C)c(-c2cn3cccc(Nc4ccc(-c5cnc(C)o5)c(F)c4)c3n2)c1 [Compound 41]	87	93	
72	> 3000	COc1cc(Nc2nc(C)cc3c2nc(-c2ccc(F)cc2)n3C)ccc1-c1cnc(C)o1 [Compound 59]	95	97	
35	> 10000	COc1cc(Nc2cc(C(F)(F)F)cc3c2nc(-c2ccc(F)cc2)n3C)ccc1-c1cnc(C)o1 [Compound 30]	92	96	
